# Measurements reported in PMC7395068, “The evolution of strategies to minimise the risk of human drug-induced liver injury (DILI) in drug discovery and development” (Archives of Toxicology, 2020).
# Like-named read-outs stand apart in the source and are kept apart here.
# Tests used:
# [1] = Plasma free fraction (fu) and unbound Cmax (Cmax,u); type: in vitro ADME, human; details: unbound plasma Cmax
# Procedure: The prediction of DILI severity was evaluated further using the 3D combined HCI assays using plasma-free fraction. The majority of fu values were obtained from literature, when unavailable in-house prediction was utilised. Unbound plasma Cmax concentrations (Cmax,u) were derived by multiplying total plasma Cmax with the corresponding free fraction (fu) for each compound.
# [2] = cited from earlier work
# HepG2 cells [3] = details: cited from earlier work
# HepG2 cells [4] = details: cited from earlier work; remark: listed apart in the source
# [5] = tested on: THLE or HepG2 cells, isolated mitochondria, BSEP; details: cited from earlier work
# [6] = read-out: Human plasma Cmax; total plasma Cmax.tot, median of 9 literature references; cited from earlier work
# [7] = plasma free fraction; cited from earlier work
# [8] = cited from earlier work; remark: listed apart in the source
# [9] = tested on: THLE-Null and THLE-3A4 cells; details: In vitro Assay; ref Gustafsson 2014; cited from earlier work
# [10] = tested on: HepG2 cells, primary human hepatocytes; details: In vitro Assay; ref Garside 2014; cited from earlier work
# Upcyte human hepatocytes = details: In vitro Assay; ref Tolosa 2019; cited from earlier work
# rBsep = details: In vitro Assay; ref Dawson 2012; cited from earlier work
# hLiMTs = assay: Combined HCI (HCS) and cellular ATP 3D assay in hLiMTs
# HepaRG spheroids = assay: Combined HCI (HCS) and cellular ATP 3D assay in HepaRG spheroids
# [11] = Modeled in vitro assays (cytotoxicity, mitochondrial dysfunction, BSEP), ref Aleo et al. 2019
# [12] = Microtissue model structural based (HCI), combined HCS and ATP, MEC < 25 × Cmax.tot cut-off
compound,measurement,setting,value
"C[N+](C)(C)CC(=O)O [betaine, reference compound]","Human plasma Cmax,u",[1],717.446 µM
same,DILI severity category (Chen et al. [2016]),"[2]; LTKB DILIrank category, ref Chen et al. 2016",No
same,DILI severity category (Chen 2016),"[2]; human DILI classification, LTKB DILIrank, ref Chen et al. 2016",No
same,DILI severity category,"[2]; human DILI severity, ref Chen et al.",No
same,"DILI +VE (5-8), DILI -VE (-4)",[2]; ref Chen 2016,-VE
same,DILI severity category,[2]; ref Chen 2016,vNo-DILI-Concern
same,Structural based (HCI),"HepG2 cells [3]; In vitro Assay, ref O'Brien 2006",+VE
same,"DILI in vitro assay prediction, O'Brien (2006)","HepG2 cells [3]; Structural based (HCI), HepG2, ref O'Brien et al. 2006",+VE (lowest HCI endpoint IC50 (or in the absence of dose–response < 100 µM) < 30 × total human plasma exposure levels (Cmax.tot))
same,Structural based (HCI),"HepG2 cells [4]; In vitro Assay, ref Tolosa 2012",-VE
same,"DILI in vitro assay prediction, Tolosa (2012)","HepG2 cells [4]; Structural based (HCI), HepG2, ref Tolosa et al. 2012",-VE
same,Partition Hybrid HRM Score,"[5]; In vitro Assay, ref Aleo 2019",-VE
same,Ro2 Hybrid HRM Score,"[5]; In vitro Assay, ref Aleo 2019",-VE
same,"Partition Hybrid HRM Score ≥4, Aleo (2019)",[5]; [11],-VE
same,"Partition Hybrid HRM Score ≥8, Aleo (2019)",[5]; [11],-VE
same,"Rule of Two hybrid HRM Score ≥3, Aleo (2019)",[5]; [11],-VE
same,"Rule of Two hybrid HRM Score ≥8, Aleo (2019)",[5]; [11],-VE
same,Cmax,[6],944 µM
same,fu,[7],0.760
same,Assigned DILI category,"[8]; Chen et al. 2016 or literature alignment, ref Chen et al. 2016",1
same,In vivo DILI,[8]; ref Aleo 2019,-VE
same,In vivo DILI,[8]; ref Dawson 2012,-VE
same,In vivo DILI,[8]; ref Garside 2014,-VE
same,In vivo DILI,[8]; ref Gustafsson 2014,-VE
same,In vivo DILI,[8]; ref O'Brien 2006,-VE
same,In vivo DILI,[8]; ref Tolosa 2012,-VE
same,In vivo DILI,[8]; ref Tolosa 2019,-VE
same,THLE-Null,[9],-VE
same,THLE-Null/3A4,[9],-VE
same,Cluster 1-6 +VE Assay,[10],-VE
same,Upcytes multi donor assay 14day data,Upcyte human hepatocytes,-VE
same,Inhibition of rBsep cutoff<1& cmax u>.2,rBsep,-VE
same,Inhibition of rBsep cutoff<3,rBsep,-VE
same,DILI prediction hLiMTs (HCS-MEC),hLiMTs; [12],-VE
same,hLiMTs <25x Avg Cmax ATP,"hLiMTs; hLiMTs, ATP endpoint, cut-off <25x Avg Cmax",-ve
same,hLiMTs <100x Avg Cmaxu ATP,"hLiMTs; hLiMTs, ATP endpoint, cut-off <100x Avg Cmaxu",-ve
same,hLiMTs <25x Avg Cmax HCS,"hLiMTs; hLiMTs, HCS endpoints, cut-off <25x Avg Cmax",-ve
same,hLiMTs <100x Avg Cmaxu HCS,"hLiMTs; hLiMTs, HCS endpoints, cut-off <100x Avg Cmaxu",-ve
same,hLiMTs <25x Avg Cmax All,"hLiMTs; hLiMTs, all endpoints (ATP and HCS), cut-off <25x Avg Cmax",-ve
same,hLiMTs Cmax max All,"hLiMTs; hLiMTs, all endpoints, Cmax max used",-ve
same,hLiMTs Cmax min All,"hLiMTs; hLiMTs, all endpoints, Cmax min used",-ve
same,hLiMTs <10 uM All,"hLiMTs; hLiMTs, all endpoints, cut-off <10 uM",-ve
same,hLiMTs <100x Avg Cmaxu All,"hLiMTs; hLiMTs, all endpoints, cut-off <100x Avg Cmaxu",-ve
same,HepaRG <25x Avg Cmax ATP,"HepaRG spheroids; HepaRG, ATP endpoint, cut-off <25x Avg Cmax",-ve
same,HepaRG <100x Avg Cmaxu ATP,"HepaRG spheroids; HepaRG, ATP endpoint, cut-off <100x Avg Cmaxu",-ve
same,HepaRG <25x Avg Cmax HCS,"HepaRG spheroids; HepaRG, HCS endpoints, cut-off <25x Avg Cmax",-ve
same,HepaRG <100x Avg Cmaxu HCS,"HepaRG spheroids; HepaRG, HCS endpoints, cut-off <100x Avg Cmaxu",-ve
same,HepaRG <25x Avg Cmax All,"HepaRG spheroids; HepaRG, all endpoints (ATP and HCS), cut-off <25x Avg Cmax",-ve
same,HepaRG Cmax max All,"HepaRG spheroids; HepaRG, all endpoints, Cmax max used",-ve
same,HepaRG Cmax min All,"HepaRG spheroids; HepaRG, all endpoints, Cmax min used",-ve
same,HepaRG <10 uM All,"HepaRG spheroids; HepaRG, all endpoints, cut-off <10 uM",-ve
same,HepaRG <100x Avg Cmaxu All,"HepaRG spheroids; HepaRG, all endpoints, cut-off <100x Avg Cmaxu",-ve
same,DILI prediction HepaRG spheroids (HCS-MEC),HepaRG spheroids; [12],-VE
